Laboratory results taken from the NIST ThermoML archive (doi:10.1021/je500857w).
± gives the expanded uncertainty stated by the source.

Assay: xn = mol fraction of the nth substance listed
Settings: Gas, Vibrating wire viscometry, x1 = 0.949

C [methane] + CCC
Settings | viscosity [mPa·s]
199.92 K, 10367 kPa | 0.03814 ± 0.0019
200.6 K, 13841 kPa | 0.04236 ± 0.0016
202.32 K, 17279 kPa | 0.04452 ± 0.0017
203.24 K, 24182 kPa | 0.05008 ± 0.0018
203.36 K, 20735 kPa | 0.04739 ± 0.0019
203.36 K, 27628 kPa | 0.05294 ± 0.0018
203.43 K, 25922 kPa | 0.0511 ± 0.0019
204.19 K, 31114 kPa | 0.05549 ± 0.0018
255.51 K, 24135 kPa | 0.03085 ± 0.00042
255.57 K, 31095 kPa | 0.03577 ± 0.0006
255.59 K, 25902 kPa | 0.03221 ± 0.00046
255.59 K, 27592 kPa | 0.03348 ± 0.00048
255.62 K, 20701 kPa | 0.02791 ± 0.00042
311.08 K, 25869 kPa | 0.02348 ± 0.00038
311.11 K, 31037 kPa | 0.0265 ± 0.0004
311.12 K, 20946 kPa | 0.02061 ± 0.00062
311.13 K, 24419 kPa | 0.02279 ± 0.00062
311.13 K, 27584 kPa | 0.02453 ± 0.00046
366.88 K, 24192 kPa | 0.01997 ± 0.00032
366.89 K, 25926 kPa | 0.02064 ± 0.0003
366.89 K, 27645 kPa | 0.02138 ± 0.00032
366.89 K, 31144 kPa | 0.0226 ± 0.00054
423.62 K, 24191 kPa | 0.01944 ± 0.00034
423.63 K, 25937 kPa | 0.01988 ± 0.00028
423.63 K, 27640 kPa | 0.02032 ± 0.00034
423.63 K, 31097 kPa | 0.02136 ± 0.0003
